According to ChEMBL document CHEMBL5696441 (Nat Chem Biol, 2011):

Legend:
[1] = target: Dual specificity protein kinase CLK2 (Homo sapiens) (UniProt P49760); test: Inhibition of CLK2 (unknown origin) assessed as remaining activity at 1 uM by Kinome scan method relative to control
[2] = target: Mast/stem cell growth factor receptor Kit (Homo sapiens) (UniProt P10721); test: Inhibition of human KIT assessed as residual activity at 1 uM using polyEY as substrate in presence of 33P-ATP by ProQinase assay relative to control
[3] = system: Tyrosine-protein kinase ABL1 (Homo sapiens), P00519 [E255K]; test: Inhibition of human ABL1 E255K mutant assessed as residual activity at 1 uM using Poly(Ala,Glu,Lys,Tyr)6:2:5:1 as substrate in presence of 33P-ATP by ProQinase assay relative to control
Tyrosine-protein kinase ABL1 (Homo sapiens), P00519 [E255K], sequence (P00519 whole entry E255K): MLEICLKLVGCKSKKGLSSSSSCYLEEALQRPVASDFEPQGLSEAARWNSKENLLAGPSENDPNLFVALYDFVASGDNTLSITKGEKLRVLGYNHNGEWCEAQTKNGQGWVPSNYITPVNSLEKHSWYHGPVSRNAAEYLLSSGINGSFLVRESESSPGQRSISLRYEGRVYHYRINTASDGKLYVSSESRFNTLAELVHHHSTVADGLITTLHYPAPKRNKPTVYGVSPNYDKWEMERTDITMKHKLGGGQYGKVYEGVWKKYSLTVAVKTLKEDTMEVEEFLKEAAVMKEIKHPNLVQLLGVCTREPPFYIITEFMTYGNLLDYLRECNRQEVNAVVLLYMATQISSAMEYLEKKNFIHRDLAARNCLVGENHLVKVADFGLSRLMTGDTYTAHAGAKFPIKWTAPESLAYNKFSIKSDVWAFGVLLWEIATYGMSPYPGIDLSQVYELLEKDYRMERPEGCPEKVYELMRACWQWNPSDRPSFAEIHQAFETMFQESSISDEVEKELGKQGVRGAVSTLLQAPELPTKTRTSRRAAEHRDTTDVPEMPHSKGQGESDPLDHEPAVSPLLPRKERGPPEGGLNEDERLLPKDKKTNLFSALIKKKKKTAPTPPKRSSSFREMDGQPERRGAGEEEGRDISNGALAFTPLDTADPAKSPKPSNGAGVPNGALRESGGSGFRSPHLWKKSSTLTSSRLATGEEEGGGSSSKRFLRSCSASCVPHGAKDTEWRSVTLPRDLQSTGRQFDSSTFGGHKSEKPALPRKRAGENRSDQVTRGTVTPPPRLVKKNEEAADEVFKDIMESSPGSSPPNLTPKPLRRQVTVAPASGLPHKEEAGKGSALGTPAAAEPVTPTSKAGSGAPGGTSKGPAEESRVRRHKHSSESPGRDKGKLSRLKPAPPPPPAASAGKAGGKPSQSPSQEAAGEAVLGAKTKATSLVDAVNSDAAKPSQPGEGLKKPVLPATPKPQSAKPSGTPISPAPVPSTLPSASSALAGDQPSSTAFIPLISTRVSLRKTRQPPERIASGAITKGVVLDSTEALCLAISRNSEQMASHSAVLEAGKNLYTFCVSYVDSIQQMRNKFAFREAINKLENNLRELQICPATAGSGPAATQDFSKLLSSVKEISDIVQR

[4] = target: Tyrosine-protein kinase CSK (Homo sapiens) (UniProt P41240); test: Inhibition of CSK (unknown origin) assessed as remaining activity at 1 uM by Kinome scan method relative to control
[5] = target: AP2-associated protein kinase 1 (Homo sapiens) (UniProt Q2M2I8); test: Inhibition of AAK1 (unknown origin) assessed as remaining activity at 1 uM by Kinome scan method relative to control
[6] = target: NUAK family SNF1-like kinase 1 (Homo sapiens) (UniProt O60285); test: Inhibition of ARK5 (unknown origin) assessed as remaining activity at 1 uM by Kinome scan method relative to control
[7] = target: Calcium/calmodulin-dependent protein kinase type 1 (Homo sapiens) (UniProt Q14012); test: Inhibition of CAMK1 (unknown origin) assessed as remaining activity at 1 uM by Kinome scan method relative to control
Calcium/calmodulin-dependent protein kinase type 1 (Homo sapiens), sequence (Q14012 whole entry, looked up): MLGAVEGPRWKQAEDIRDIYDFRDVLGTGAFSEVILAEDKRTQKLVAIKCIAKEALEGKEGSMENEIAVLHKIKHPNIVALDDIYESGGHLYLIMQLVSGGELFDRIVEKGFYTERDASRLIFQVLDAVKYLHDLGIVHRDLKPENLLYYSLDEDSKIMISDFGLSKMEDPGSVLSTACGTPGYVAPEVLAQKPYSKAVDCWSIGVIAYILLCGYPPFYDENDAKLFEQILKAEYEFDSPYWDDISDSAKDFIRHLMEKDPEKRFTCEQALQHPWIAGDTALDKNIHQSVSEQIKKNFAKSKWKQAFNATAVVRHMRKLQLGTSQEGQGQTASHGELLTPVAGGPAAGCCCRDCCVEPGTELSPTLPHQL

[8] = target: T1, cGMP-dependent protein kinase 1 (Homo sapiens) (UniProt Q13976); test: Inhibition of human PRKG1 assessed as residual activity at 1 uM using 3xChocktide-PKC(19-31) as substrate in presence of 33P-ATP by ProQinase assay relative to control
T1 sequence (whole entry): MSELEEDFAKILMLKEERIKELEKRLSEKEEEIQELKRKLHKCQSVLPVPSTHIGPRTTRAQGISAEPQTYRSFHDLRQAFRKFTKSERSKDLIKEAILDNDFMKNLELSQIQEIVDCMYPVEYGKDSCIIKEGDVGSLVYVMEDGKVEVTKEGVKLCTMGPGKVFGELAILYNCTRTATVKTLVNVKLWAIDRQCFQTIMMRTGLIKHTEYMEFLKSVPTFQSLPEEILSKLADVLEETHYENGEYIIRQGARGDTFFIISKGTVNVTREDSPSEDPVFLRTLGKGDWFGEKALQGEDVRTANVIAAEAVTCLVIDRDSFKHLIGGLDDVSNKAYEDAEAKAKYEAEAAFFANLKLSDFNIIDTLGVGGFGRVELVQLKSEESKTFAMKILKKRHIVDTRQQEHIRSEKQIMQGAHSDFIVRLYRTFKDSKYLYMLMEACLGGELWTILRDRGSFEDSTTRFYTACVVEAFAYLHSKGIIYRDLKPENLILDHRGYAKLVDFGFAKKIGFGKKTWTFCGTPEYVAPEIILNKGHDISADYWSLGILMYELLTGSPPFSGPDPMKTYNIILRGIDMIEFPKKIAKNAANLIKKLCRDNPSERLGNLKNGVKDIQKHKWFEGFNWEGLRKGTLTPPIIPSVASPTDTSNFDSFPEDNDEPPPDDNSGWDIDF

[9] = target: Interferon-induced, double-stranded RNA-activated protein kinase (Homo sapiens) (UniProt P19525); test: Inhibition of human EIF2AK2 assessed as residual activity at 1 uM using RB-CTF as substrate in presence of 33P-ATP by ProQinase assay relative to control
Interferon-induced, double-stranded RNA-activated protein kinase (Homo sapiens), sequence (P19525 whole entry): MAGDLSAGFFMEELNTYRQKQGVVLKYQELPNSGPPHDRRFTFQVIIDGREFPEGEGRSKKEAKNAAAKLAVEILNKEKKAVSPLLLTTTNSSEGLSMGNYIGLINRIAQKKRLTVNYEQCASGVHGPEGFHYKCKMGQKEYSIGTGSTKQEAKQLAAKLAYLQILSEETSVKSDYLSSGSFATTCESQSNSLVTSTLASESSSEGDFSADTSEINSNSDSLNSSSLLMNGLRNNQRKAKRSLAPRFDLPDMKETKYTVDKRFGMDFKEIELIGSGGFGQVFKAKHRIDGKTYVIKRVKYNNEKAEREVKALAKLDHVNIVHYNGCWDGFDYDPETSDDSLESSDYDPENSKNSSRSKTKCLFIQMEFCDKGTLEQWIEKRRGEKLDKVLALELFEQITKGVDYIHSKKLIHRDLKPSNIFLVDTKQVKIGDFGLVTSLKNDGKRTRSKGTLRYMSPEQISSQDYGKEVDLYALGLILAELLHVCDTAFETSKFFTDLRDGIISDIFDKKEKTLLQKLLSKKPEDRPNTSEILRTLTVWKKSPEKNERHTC

[10] = Anti-inflammatory activity against human derived medium respond PBMC cells assessed as inhibition in stimulated INFgamma cytokine release incubated for 2 hrs in the presence of LPS/SEB/aCD28 by Luminex based sandwich immunoassay; type: functional, cell-based
[11] = system: Mast/stem cell growth factor receptor Kit (Homo sapiens), P10721 [T670I]; test: Inhibition of human KIT T670I mutant assessed as residual activity at 1 uM using polyEY as substrate in presence of 33P-ATP by ProQinase assay relative to control
[12] = system: Receptor-type tyrosine-protein kinase FLT3 (Homo sapiens), P36888 [D835Y]; test: Inhibition of FLT3 D835Y mutant (unknown origin) assessed as remaining activity at 1 uM by Kinome scan method relative to control
[13] = system: Dual specificity mitogen-activated protein kinase kinase 6 (Homo sapiens), P52564 [S207D,T211D]; test: Inhibition of human MKK6 S207D/T211D double mutant assessed as residual activity at 1 uM using p38-alpha KA as substrate in presence of 33P-ATP by ProQinase assay relative to control
Dual specificity mitogen-activated protein kinase kinase 6 (Homo sapiens), P52564 [S207D,T211D], sequence (P52564 whole entry S207D/T211D): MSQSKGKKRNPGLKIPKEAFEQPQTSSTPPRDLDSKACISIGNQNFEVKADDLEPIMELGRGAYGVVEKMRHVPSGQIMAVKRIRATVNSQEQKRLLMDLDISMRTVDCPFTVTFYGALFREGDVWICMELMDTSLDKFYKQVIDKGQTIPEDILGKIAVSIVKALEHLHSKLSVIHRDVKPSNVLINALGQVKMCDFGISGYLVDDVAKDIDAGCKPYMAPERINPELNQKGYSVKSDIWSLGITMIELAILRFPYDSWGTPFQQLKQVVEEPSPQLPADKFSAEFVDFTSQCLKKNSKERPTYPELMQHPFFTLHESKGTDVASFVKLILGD

[14] = target: Mitogen-activated protein kinase kinase kinase 5 (Homo sapiens) (UniProt Q99683); test: Inhibition of ASK1 (unknown origin) assessed as remaining activity at 1 uM by Kinome scan method relative to control
Mitogen-activated protein kinase kinase kinase 5 (Homo sapiens), sequence (Q99683 whole entry): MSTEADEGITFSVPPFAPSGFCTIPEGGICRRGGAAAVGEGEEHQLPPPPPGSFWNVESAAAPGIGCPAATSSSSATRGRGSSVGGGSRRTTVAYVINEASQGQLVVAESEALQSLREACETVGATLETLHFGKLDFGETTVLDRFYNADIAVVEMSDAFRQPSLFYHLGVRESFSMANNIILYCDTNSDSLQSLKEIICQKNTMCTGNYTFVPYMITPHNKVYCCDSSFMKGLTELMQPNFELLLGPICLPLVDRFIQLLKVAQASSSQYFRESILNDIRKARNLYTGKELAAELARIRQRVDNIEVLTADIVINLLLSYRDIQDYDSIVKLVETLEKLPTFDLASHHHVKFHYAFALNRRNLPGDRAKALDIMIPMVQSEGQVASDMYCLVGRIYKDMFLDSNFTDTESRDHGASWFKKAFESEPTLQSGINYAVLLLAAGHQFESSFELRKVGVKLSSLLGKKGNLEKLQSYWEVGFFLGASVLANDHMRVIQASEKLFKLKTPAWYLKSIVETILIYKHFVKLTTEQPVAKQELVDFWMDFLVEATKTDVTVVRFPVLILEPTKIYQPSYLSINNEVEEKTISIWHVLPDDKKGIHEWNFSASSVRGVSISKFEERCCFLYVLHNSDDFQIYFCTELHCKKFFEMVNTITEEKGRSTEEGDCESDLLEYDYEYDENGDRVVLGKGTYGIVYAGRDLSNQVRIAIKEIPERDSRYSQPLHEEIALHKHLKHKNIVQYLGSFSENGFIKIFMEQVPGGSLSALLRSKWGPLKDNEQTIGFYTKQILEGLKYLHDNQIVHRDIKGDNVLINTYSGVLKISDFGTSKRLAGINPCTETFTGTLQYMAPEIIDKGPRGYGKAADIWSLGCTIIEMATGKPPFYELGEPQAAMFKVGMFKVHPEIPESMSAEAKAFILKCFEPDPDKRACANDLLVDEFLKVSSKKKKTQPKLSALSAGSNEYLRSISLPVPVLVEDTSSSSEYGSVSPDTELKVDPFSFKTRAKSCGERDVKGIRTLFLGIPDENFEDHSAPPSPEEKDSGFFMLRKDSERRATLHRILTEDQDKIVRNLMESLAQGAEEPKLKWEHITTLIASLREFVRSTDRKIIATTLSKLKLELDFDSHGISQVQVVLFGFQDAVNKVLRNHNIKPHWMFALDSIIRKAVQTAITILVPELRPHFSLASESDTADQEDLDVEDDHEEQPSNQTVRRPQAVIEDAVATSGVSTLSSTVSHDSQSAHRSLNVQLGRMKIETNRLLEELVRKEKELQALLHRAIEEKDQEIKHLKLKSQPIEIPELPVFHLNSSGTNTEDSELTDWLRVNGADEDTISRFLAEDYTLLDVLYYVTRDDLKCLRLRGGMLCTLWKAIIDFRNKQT

[15] = target: T2, Serine/threonine-protein kinase Nek2 (Homo sapiens) (UniProt P51955); test: Inhibition of human NEK2 assessed as residual activity at 1 uM using RB-CTF as substrate in presence of 33P-ATP by ProQinase assay relative to control
T2 sequence (whole entry): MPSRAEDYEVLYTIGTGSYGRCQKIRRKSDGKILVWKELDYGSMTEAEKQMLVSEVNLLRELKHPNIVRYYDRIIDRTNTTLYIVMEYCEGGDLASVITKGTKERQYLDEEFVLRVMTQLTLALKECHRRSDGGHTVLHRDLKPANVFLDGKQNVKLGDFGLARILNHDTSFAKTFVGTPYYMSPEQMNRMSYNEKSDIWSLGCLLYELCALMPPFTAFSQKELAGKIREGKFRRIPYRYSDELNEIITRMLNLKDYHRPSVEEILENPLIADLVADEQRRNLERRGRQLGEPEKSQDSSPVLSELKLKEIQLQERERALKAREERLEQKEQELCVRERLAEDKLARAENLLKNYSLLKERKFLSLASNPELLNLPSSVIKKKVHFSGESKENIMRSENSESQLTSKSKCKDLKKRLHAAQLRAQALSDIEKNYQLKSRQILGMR

[16] = Anti-inflammatory activity against human derived high respond PBMC cells assessed as inhibition in stimulated IL-1alpha cytokine release incubated for 2 hrs in the presence of LPS/SEB/aCD28 by Luminex based sandwich immunoassay; type: functional, cell-based
[17] = target: Ribosomal protein S6 kinase alpha-3 (Homo sapiens) (UniProt P51812); test: Inhibition of human RPS6KA3 assessed as residual activity at 1 uM using bio-4xCHKT as substrate in presence of 33P-ATP by ProQinase assay relative to control
[18] = target: Vascular endothelial growth factor receptor 1 (Homo sapiens) (UniProt P17948); test: Inhibition of human VEGFR1 assessed as residual activity at 1 uM using polyEY as substrate in presence of 33P-ATP by ProQinase assay relative to control
Vascular endothelial growth factor receptor 1 (Homo sapiens), sequence (P17948 whole entry): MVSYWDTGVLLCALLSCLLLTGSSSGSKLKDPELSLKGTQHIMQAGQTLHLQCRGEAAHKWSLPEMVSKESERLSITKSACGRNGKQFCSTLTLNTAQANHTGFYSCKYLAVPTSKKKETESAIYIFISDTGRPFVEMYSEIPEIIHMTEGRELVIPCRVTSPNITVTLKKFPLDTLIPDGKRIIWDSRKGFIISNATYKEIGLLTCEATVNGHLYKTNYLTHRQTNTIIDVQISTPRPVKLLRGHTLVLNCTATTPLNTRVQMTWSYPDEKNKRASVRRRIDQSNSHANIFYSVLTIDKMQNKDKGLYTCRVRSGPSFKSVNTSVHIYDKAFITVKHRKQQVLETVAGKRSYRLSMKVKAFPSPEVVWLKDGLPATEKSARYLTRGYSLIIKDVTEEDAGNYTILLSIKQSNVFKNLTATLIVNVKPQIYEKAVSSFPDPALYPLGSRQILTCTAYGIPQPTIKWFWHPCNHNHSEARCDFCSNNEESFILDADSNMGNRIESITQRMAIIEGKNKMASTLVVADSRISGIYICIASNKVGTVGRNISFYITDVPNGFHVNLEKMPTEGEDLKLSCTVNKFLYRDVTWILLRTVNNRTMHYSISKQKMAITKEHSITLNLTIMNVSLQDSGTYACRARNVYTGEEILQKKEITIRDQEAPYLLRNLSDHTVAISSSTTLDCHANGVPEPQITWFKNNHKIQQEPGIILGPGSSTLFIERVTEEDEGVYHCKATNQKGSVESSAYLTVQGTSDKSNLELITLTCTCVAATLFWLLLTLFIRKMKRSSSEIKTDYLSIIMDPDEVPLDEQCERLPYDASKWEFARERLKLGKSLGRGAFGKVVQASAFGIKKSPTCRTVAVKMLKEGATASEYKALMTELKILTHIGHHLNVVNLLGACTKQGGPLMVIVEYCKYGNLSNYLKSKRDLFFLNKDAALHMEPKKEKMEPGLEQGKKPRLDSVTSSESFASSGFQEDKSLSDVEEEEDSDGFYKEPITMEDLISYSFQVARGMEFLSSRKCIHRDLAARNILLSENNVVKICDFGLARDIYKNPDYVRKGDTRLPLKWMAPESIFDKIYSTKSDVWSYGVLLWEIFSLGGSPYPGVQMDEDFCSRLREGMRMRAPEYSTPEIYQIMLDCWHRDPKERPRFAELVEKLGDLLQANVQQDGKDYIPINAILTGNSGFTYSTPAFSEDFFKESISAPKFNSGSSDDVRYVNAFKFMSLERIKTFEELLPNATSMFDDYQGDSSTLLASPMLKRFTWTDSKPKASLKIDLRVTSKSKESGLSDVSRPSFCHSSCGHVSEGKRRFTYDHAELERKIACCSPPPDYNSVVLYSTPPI

O=C1c2ccc(Nc3ccc(F)cc3F)cc2CCc2ccc(OC[C@H](O)CO)cc21 [Skepinone-L] gave an Activity [1] of 90%, an Activity [2] of 111% and an Activity [3] of 105%. It also gave an Activity [4] of 100%, an Activity [5] of 100% and an Activity [6] of 100%. The Activity [7] was 100%, the Activity [8] was 110% and the Activity [9] was 86%. It also gave an IC50 [10] of 300 nM, an Activity [11] of 145% and an Activity [12] of 98%. For the same compound, the Activity [13] was 120%, the Activity [14] was 93% and the Activity [15] was 85%. The IC50 [16] was 120 nM, the Activity [17] was 89% and the Activity [18] was 113%.
